According to patent US9125877B2, “Use of kauranes compounds in the manufacture of medicament” (priority 2004, dated 2015):
Entries after “also recorded” stand apart in the source; their conditions may differ. Where two headings read alike, the source gives them in different places.

How the values were obtained:
[1] = test system: arterial pressure; settings: 25 mg/kg intraperitoneal in rats; cited from earlier work
[2] = test system: mice; settings: cited from earlier work
[3] = intravenous injection, previously reported; cited from earlier work
[4] = test system: ischemic heart (occlusion of left coronary artery and reperfusion); experiment: Cardiodynamic parameters in the cardiac ischemia-reperfusion rat model; assay type: in vivo, Sprague-Dawley rats
Procedure: (§1) Rats were anesthetized, the tracheotomy was performed and an intubation cannula was connected to a respirator for artificial respiration. Arterial blood pressure monitored by a pressure gauge via a femoral artery. A Miller pressure gauge was intervened into left ventricular chamber via a carotid artery to monitor ventricular pressure. The pressure gauges were connected to a Power-lab biological real-time data recording system. ECG was monitored and recorded via subcutaneous needle probes on the arms of rats. The parameters recorded including: Mean arterial blood pressure (MAP), left ventricular systolic pressure (LVSP), the first derivatives of left ventricular pressure (±dp/dtMax), left ventricular diastolic pressure (LVDP), left ventricular end diastolic pressure (LVEDP) and heart rate (HR).
(§2) The chest was open by a left-side thoracotomy between the 4th intercostals space. The pericardium was opened to expose the heart. A stainless needle and a silk suture were placed around the left coronary artery (LCD) and a loose snare ligation was formed. After complete the surgery, the animals were allowed to stabilize for 10 minus before the occlusion of LCD by tightening the snare. A success in occlusion was associated with an area of pericardial cyanosis, an elevation of T wave or ST segment in ECG. The ischemia period of occlusion was maintained from 20 or 30 minus. Cardiac reperfusion was then achieved by releasing of the snare and was confirmed by hyperemic blushing of the previous ischemic area of cyanosis and gradually recovery of the changes in ECG signals. The reperfusion period was maintained for 50 to 80 minus. ECG, MAP and other cardiodynamic data were recorded before the ischemia (control), and during the periods of ischemia and reperfusion.
Control group: occlusion of coronary/ischemia-reperfusion. Testing group: occlusion of coronary/ischemia-reperfusion plus compound A or B
In part of the experiments, the time periods for occlusion and release of coronary were set for 30 min and 80 min, in order to enhance the results of ischemia-reperfusion.

[5] = test system: ischemic heart (left anterior descending coronary artery); experiment: Pig coronary ischemia-reperfusion by balloon-tip catheter in LAD; assay type: in vivo
Text: At an extremely high dose, the said effects may be abrogated. In a pig study in the invention, a balloon-tip catheter was intervened into left anterior descending coronary artery (LAD) under the guidance of X-ray angiograph. Coronary ischemia and reperfusion was reproduced by inflating or deflating the balloon. […] Kaurene compounds at this large dose may initiate an opposite or undesired effect which can diminish or override the therapeutic effects mentioned above.

[6] = test system: ischemic myocardium, myocytes and mitochondria; experiment: Morphology of ischemic myocardium under light and electron microscope; assay type: in vivo, Sprague-Dawley rats
Procedure: At the end of experiments, the ischemic and non-ischemic normal myocardium were excised at the ischemic region respectively from both control or testing groups (compound A 1 mg/kg), and from sham-operated animals at respective region of the heart. The tissues were fixed with paraformaldehyde, embedded in wax, cut into thin or ultra-thin sections, stained and viewed under light or electron microscope.
Analogously to Example 5 except the testing group treated with compound B (2 mg/kg). Myocardiac tissues from non-ischemia, ischemia and testing group animals were excised and prepared as noted above. Myocytes and its ultra structure were examined under light and transmission electron microscope. […] The densities of crestae and matrix appear normal, and the granules normally distributed within mitochondria. […] The histological results were similar to the results from the animal treated with compound A (1 mg/kg) and indicate significant protective effects of compound B on myocardium by alleviating the ischemic damage of myocytes and mitochondria.

[7] = test system: rats; settings: cited from earlier work
[8] = test system: ventricular tachycardia and fibrillation caused by coronary ischemia; experiment: Arrhythmia (VT, VF) during cardiac ischemia by coronary occlusion; assay type: in vivo, Sprague-Dawley rats; settings: for VF Duration / VT Duration / VTorVF Onset / VT + VF score: occlusion of coronary for 20 min; for VT + VF score: score = (duration of VT × 1) + (duration of VF × 2)
Procedure: as §1, §2
Arrhythmia of ventricular tachycardia (VT) and fibrillation (VF) are the main causes of death in clinic. In the control group during ischemia, VT occurred in all of the 11 animals, VF occurred in 10 out of the 11 animals, and 3 out of the 11 animals were dead due to continuation of VF. […] The results from both control and testing groups during cardiac ischemia including the frequency of occurrence, onset time and duration of the VT and VF are shown in table 3.

[9] = test system: ischemic myocardium; experiment: Infarct size of myocardium after ischemia-reperfusion (Evans blue); assay type: in vivo, Sprague-Dawley rats; settings: compound A 1 mg/kg; control 58.6±4.7%; weight of infarct tissue/(infarct + ischemia tissue)
Text: as §2, with “The reperfusion period was maintained for 50 to 80 minus.” left out
Determination of the infarct size of myocardium: In both control and testing groups, After the end of reperfusion period, the coronary was occluded, Evans blue dye (1%, 0.5 ml) was injected to determine the ischemic and non-ischemic area of myocardium. […] After weighing the respective tissue samples, the infarction size of myocardium was calculated and express as following: Size of infarction=weight of infarct tissue/(weight of infarct tissue+weight of ischemia tissue) x %.

[10] = No obvious toxicity dose, administered intravenously (the invention); assay type: in vivo
[11] = Solubility in water; assay type: physicochemical; settings: free acid, before salt formation
Procedure: The salts can be sodium, potassium or other inorganic salts. A preferred method is to use sodium. The method is the following: A solution of […] of NaOH is prepared. The liquid sodium salt of compound A or B was formed by dissolving 1 g of the compound A or B into 10 ml of the above NaOH solution and adjusting the PH to neutral. This liquid sodium salt can be further diluted with sterile water or mixed with pharmaceutical carrier at needed concentration for parenteral administration. It can be stored at room temperature.

[12] = test system: cerebral ischemia; experiment: Decapitated mouse model of brain ischemia (mouth-opening); assay type: in vivo, mice
Procedure: Decapitated mouse model: The mouse first decapitated and the movement of mouth opening was monitored as a sign of respiration. The frequency and duration of mouth-opening was used as an index of cerebral function after decapitation.
The animals were randomly assigned into three groups (n=8, equal number in sex): Control group, only vehicle saline were given; Testing group, compound A (4 mg/kg) dissolved in saline were given; and Positive control group, a reference compound Edaravone (8 mg/kg) dissolved in saline were given, Edaravone is an anti-oxidation drug and has protective effects on neuronal injury (Granl A. et al. 1996).
Vehicle or compounds were administrated intraperitonealy 30 minus before decapitation.

[13] = test system: ischemic heart (occlusion of left coronary artery and reperfusion); experiment: Cardiodynamic parameters in the cardiac ischemia-reperfusion rat model; assay type: in vivo, Sprague-Dawley rats; settings: stevioside 10 to 15 mg/kg, rats
[14] = reported; large amount, under certain condition in vitro; cited from earlier work
[15] = compound A 1 mg/kg i.v., before ischemia
[16] = compound A 1 mg/kg i.v., ischemia
[17] = compound A 1 mg/kg i.v., reperfusion
[18] = 4 mg/kg intraperitoneal 30 min before decapitation
[19] = compound B 2 mg/kg, before ischemia
[20] = compound B 2 mg/kg, during ischemia
[21] = compound B 2 mg/kg, during reperfusion
[22] = 8 mg/kg intraperitoneal 30 min before decapitation

Structure (SMILES): C[C@@]12CC[C@@H]3[C@@](CC[C@H]4[C@@]3(C)CCC[C@@]4(C)C(=O)O)(CC1=O)C2 [Compound A, (4α,8β,13β)-13-methyl-16-oxo-17-norkauran-18-oic acid]
- effect of a large dose on vessels and arterial pressure [1]: vasodilation and lowering of arterial pressure
- minimum oral lethal dose [2]: 5060 mg/kg
- median lethal dose (LD50) [3]: 650 mg/kg
- hypotension effect ([4]; 1 mg/kg intravenous in rats): no such hypotension effect
- +dp/dt Max.LVSP [4, 15]: 8543 ± 486 mmHg/sec
- HR [4, 15]: 367 ± 13 beat/min
- LVSP [4, 15]: 111 ± 4 mmHg
- MAP [4, 15]: 73 ± 3 mmHg
- +dp/dt Max.LVSP [4, 16]: 7468 ± 558 mmHg/sec
- HR [4, 16]: 375 ± 10 beat/min
- LVSP [4, 16]: 103 ± 3 mmHg
- MAP [4, 16]: 70 ± 5 mmHg
- +dp/dt Max.LVSP [4, 17]: 8431 ± 340 mmHg/sec
- HR [4, 17]: 394 ± 7 beat/min
- LVSP [4, 17]: 114 ± 5 mmHg
- MAP [4, 17]: 76 ± 3 mmHg
- sever arrhythmia induced by ischemia ([5]; pig pretreated at a small dose): effectively prevented
- cardiac contractile function ([5]; pig, extremely high dose (20 times more) administered via LAD): significant decrease in cardiac contractile function
- effects on heart before ischemia ([5]; pig, small dose): no observable effects on heart
- morphology of ischemic myocardium under light microscope ([6]; compound A 1 mg/kg, 100× microscope): Destruction of myocytes was not evident
- ultra structure of ischemic myocytes under electron microscope ([6]; compound A 1 mg/kg, ×12000, comparing with non-ischemia myocytes): no observable damages of the myocytes and mitochondria
- LD50 ([7]; intraperitoneal, rats): 617 mg/kg
- median lethal dose (LD50) ([7]; intravenous injection, rats): 503 mg/kg
- major symptoms of toxicity at lethal dose ([7]; lethal dose): vasodilation and renal failure
- minimum oral lethal dose ([7]; oral, rats): 3160 mg/kg
- oral median lethal dose (LD50) ([7]; oral, rats): 3160 mg/kg
- VF Duration ([8]; 1 mg/kg): 1 s
- VT Duration ([8]; 1 mg/kg): 12 + 6 sec
- VTorVF Onset ([8]; 1 mg/kg): 730 + 166 sec
- VT + VF score ([8]; 1 mg/kg): 14 + 7
- survival of cardiac ischemia ([8]; compound A 1 mg/kg, control: 3 out of 11 dead due to continuation of VF): all the animal survived
- size of infarction after ischemia [9]: 45.8±2.9%
- no obvious toxicity dose [10]: up to 40 mg/kg
- solubility in water [11]: not Readily Dissolved in Water
- Duration of mouth-opening [12, 18]: 22.9 ± 5 s
- Frequency of mouth-opening [12, 18]: 14.0 ± 3.2

Structure (SMILES): C=C1C[C@@]23CC[C@H]4[C@@](C)(CCC[C@@]4(C)C(=O)O[C@@H]4O[C@H](CO)[C@@H](O)[C@H](O)[C@H]4O)[C@@H]2CC[C@]1(O[C@@H]1O[C@H](CO)[C@@H](O)[C@H](O)[C@H]1O[C@@H]1O[C@H](CO)[C@@H](O)[C@H](O)[C@H]1O)C3 [stevioside, reference compound]
- therapeutic effects on cardiac contractile function [13]: No significant therapeutic effects
- therapeutic effects on arrhythmia ([8]; stevioside 10 to 15 mg/kg, rats): No significant therapeutic effects

Structure (SMILES): C=C1C[C@@]23CC[C@H]4[C@@](C)(CCC[C@@]4(C)C(=O)O)[C@@H]2CC[C@]1(O)C3 (single isomer, unassigned; ent-13) [Compound B, ent-13-hydroxykaur-16-en-18-oic acid]
- mutagenic effects [14]: certain mutagenic effects; also recorded: may be mutagenic
- +dp/dtMax. LVSP [4, 19]: 8609±543 mmHg/sec
- LVSP [4, 19]: 112±5 mmHg
- +dp/dtMax. LVSP [4, 20]: 7592±433 mmHg/sec
- LVSP [4, 20]: 104±4 mmHg
- +dp/dtMax. LVSP [4, 21]: 8362±498 mmHg/sec
- LVSP [4, 21]: 110±4 mmHg
- morphology of ischemic myocardium under light and transmission electron microscope ([6]; compound B 2 mg/kg, comparing with non-ischemia myocytes): Damages of both myocytes and mitochondria were not evident
- oral median lethal dose (LD50) ([7]; rat, in vivo, po): 1500 mg/kg
- VF Duration ([8]; 2 mg/kg): 1 s
- VT Duration ([8]; 2 mg/kg): 21 + 12 sec
- VTorVF Onset ([8]; 2 mg/kg): 660 + 178 sec
- VT + VF score ([8]; 2 mg/kg): 22 + 13
- animals dead during cardiac ischemia ([8]; compound B 2 mg/kg, n=5, control: 3 out of 11 dead): none of the animals are dead
- solubility in water [11]: not Readily Dissolved in Water
- Duration of mouth-opening [12, 22]: 20.1 ± 4.1 s
- Frequency of mouth-opening [12, 22]: 12.8 ± 2.7

Structure (SMILES): CC1=NN(c2ccccc2)C(=O)C1 [Edaravone, reference compound]
- Duration of mouth-opening [12, 22]: 17.1 ± 4.3 s
- Frequency of mouth-opening [12, 22]: 13.1 ± 2.4
